Data reported in patent US12084472B2 (Ardelyx, Inc., priority 2015, dated 2024).

These molecules were tested against T1, human TGR5 (Homo sapiens, UniProt Q8TDU6) (assay: Cell-based TGR5 assay (cAMP generation, HTRF)). Conditions: HEK293 cells stably transfected with human TGR5; cAMP by HTRF; 30 minutes at 37° C.; read-out: pEC50 Human TGR5 (converted).
T1 construct: expressed in transfected cells; host or cells: HEK293
T1 sequence (Q8TDU6 1-330): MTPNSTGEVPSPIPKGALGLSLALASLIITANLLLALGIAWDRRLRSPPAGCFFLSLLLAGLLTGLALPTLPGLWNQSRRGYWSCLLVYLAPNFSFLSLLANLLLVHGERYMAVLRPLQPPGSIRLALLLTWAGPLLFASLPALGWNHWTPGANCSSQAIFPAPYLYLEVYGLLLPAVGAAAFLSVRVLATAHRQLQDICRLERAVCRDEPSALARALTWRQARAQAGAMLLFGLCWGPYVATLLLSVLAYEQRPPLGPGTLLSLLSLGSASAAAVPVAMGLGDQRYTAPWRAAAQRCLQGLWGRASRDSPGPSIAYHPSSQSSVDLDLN
Method: A primary cell-based assay utilized HEK293 cells stably transfected with a gene encoding human TGR5. Cells were treated with candidate TGR5 activators and assessed for increased intercellular levels of cAMP.
TGR5-mediated cAMP generation was measured using a homogeneous time resolved fluorescence (HTRF) detection method (Cisbio). Test compounds were dissolved in DMSO to a final concentration of 10 mM. Serial 3-fold dilutions of the stock solution were made in DMSO, and these solutions were diluted 100-fold into Hanks Balanced Salt Solution supplemented with 10 mM HEPES pH 7.4, 0.003% Tween 20 and 0.5 mM isobutyl methylxanthine. Five microliters of diluted test compounds were added to wells of a black 384 well plate.
Cells grown overnight at 37° C./5% CO2 were harvested and resuspended in Hanks Balanced Salt Solution containing 10 mM HEPES to a concentration of […]. Five microliters (2500 cells) were dispensed into each well of the 384 well plate containing compound dilutions and incubated at 37° C. for 30 minutes. Each compound was tested in duplicate at 12 concentrations ranging from 0.05 nM to 10 μM.
Following incubation with test compounds, cAMP was detected through the successive addition of 5 μL each of cAMP labeled with the modified allophyocyanin dye d2 (cAMP-d2) and cryptate-labeled anti-cAMP in lysis buffer, and reading HTRF per the manufacturer's instructions.
A standard curve was used to convert the raw HTRF data into [cAMP]. The concentration of cAMP was plotted against log [test compound] and the resulting curves were fit to a 3-parameter logistical equation using GraphPad Prism to determine pEC50 (the negative log of the EC50) and the magnitude of the response.

Row | SMILES | EC50 [nM]
1 | CS(=O)(=O)CCCN(CCCCSc1ccc(Cl)c(COC2(c3cnccc3-c3ccccc3OC3CC3)CC2)c1)C(=O)[C@@H](O)[C@@H](O)[C@H](O)[C@@H](O)CO [Compound I-523, (2S,3S,4R,5S)-N-(4-{[4-chloro-3-({1-[4-(2-cyclopropoxyphenyl)pyridin-3-yl]cyclopropoxy}methyl)phenyl]sulfanyl}butyl)-2,3,4,5,6-pentahydroxy-N-(3-methanesulfonylpropyl)hexanamide] | < 100
2 | CN(C[C@H](O)[C@@H](O)[C@H](O)[C@H](O)CO)C(=O)CC1(CSc2ccc(Cl)c(CNC3(c4cnccc4-c4ccccc4OC4CC4)CC3)c2)CC1 [Compound I-681, 2-{1-[({4-chloro-3-[({1-[4-(2-cyclopropoxyphenyl)pyridin-3-yl]cyclopropyl}amino)methyl]phenyl}sulfanyl)methyl]cyclopropyl}-N-methyl-N-[(2S,3R,4R,5R)-2,3,4,5,6-pentahydroxyhexyl]acetamide] | < 100
3 | Cc1ccc(SCCCC(=O)N(C)C[C@H](O)[C@@H](O)[C@H](O)[C@H](O)CO)cc1COC1(c2cnccc2-c2ccccc2OC2CC2)CC1 [Compound I-652, 4-{[3-({1-[4-(2-cyclopropoxyphenyl)pyridin-3-yl]cyclopropoxy}methyl)-4-methylphenyl]sulfanyl}-N-methyl-N-[(2S,3R,4R,5R)-2,3,4,5,6-pentahydroxyhexyl]butanamide] | < 100
4 | Cn1c(C(=O)NC[C@H](O)[C@@H](O)[C@H](O)[C@H](O)CO)cnc1SCc1ccc(Cl)c(COC2(c3cnccc3-c3ccccc3OC3CC3)CC2)c1 [Compound I-758, 2-((4-chloro-3-((1-(4-(2-cyclopropoxyphenyl)pyridin-3-yl)cyclopropoxy)methyl)benzyl)thio)-1-methyl-N-((2S,3R,4R,5R)-2,3,4,5,6-pentahydroxyhexyl)-1H-imidazole-5-carboxamide] | 126 to 1000
5 | Cc1ccc(CCCCC(=O)N(C)C[C@H](O)[C@@H](O)[C@H](O)[C@H](O)CO)nc1COC1(c2cnccc2-c2ccccc2OC2CC2)CC1 [Compound I-709] | 1260 to 10000
6 | CC(CCCC(=O)N(C)C[C@H](O)[C@@H](O)[C@H](O)[C@H](O)CO)c1cc(Cl)c(CNC2(c3cnccc3-c3ccccc3OC3CC3)CC2)cc1Cl (stereo partly drawn) [Compound I-379, 5-{2,5-dichloro-4-[({1-[4-(2-cyclopropoxyphenyl)pyridin-3-yl]cyclopropyl}amino)methyl]phenyl}-N-methyl-N-[(2S,3R,4R,5R)-2,3,4,5,6-pentahydroxyhexyl]hexanamide] | 126 to 1000
7 | O=C(CCCCc1cc(Cl)c(COC2(c3cnccc3-c3ccccc3OC3CC3)CC2)cc1Cl)N(Cc1ccccc1)C[C@@H](O)[C@H](O)[C@H](O)[C@H](O)CO [Compound I-120, N-benzyl-5-(2,5-dichloro-4-((1-(4-(2-cyclopropoxyphenyl)pyridin-3-yl)cyclopropoxy)methyl)phenyl)-N-((2R,3S,4R,5R)-2,3,4,5,6-pentahydroxyhexyl)pentanamide] | 126 to 1000
8 | CC(CCCC(=O)N(CCS(C)(=O)=O)C[C@@H](O)[C@H](O)[C@@H](O)[C@@H](O)CO)c1ccc(Cl)c(CNC2(c3cnccc3-c3ccccc3OC3CC3)CC2)c1 (stereo partly drawn) [Compound I-346, 5-{4-chloro-3-[({1-[4-(2-cyclopropoxyphenyl)pyridin-3-yl]cyclopropyl}amino)methyl]phenyl}-N-(2-methanesulfonylethyl)-N-[(2R,3S,4S,5S)-2,3,4,5,6-pentahydroxyhexyl]hexanamide] | < 100
9 | Cc1ccc(C(C)CCCCNC(=O)NC[C@H](O)[C@@H](O)[C@H](O)[C@H](O)CO)cc1CNC1(c2cnccc2-c2ccccc2OC2CC2)CC1 (stereo partly drawn) [Compound I-272, 1-(5-{3-[({1-[4-(2-cyclopropoxyphenyl)pyridin-3-yl]cyclopropyl}amino)methyl]-4-methylphenyl}hexyl)-3-[(2S,3R,4R,5R)-2,3,4,5,6-pentahydroxyhexyl]urea] | < 100
10 | CN(C[C@H](O)[C@@H](O)[C@H](O)[C@H](O)CO)C(=O)CCCCc1ccc(Cl)c(COC2(c3cnccc3-c3ccccc3OC3CC3)CC2)c1 (stereo in doubt) [Compound I-232, 5-[4-chloro-3-({1-[4-(2-cyclopropoxyphenyl)pyridin-3-yl]cyclopropoxy}methyl)phenyl]-N-methyl-N-[(2S,3R,4R,5R)-2,3,4,5,6-pentahydroxyhexyl]pentanamide] | < 100
11 | Cn1c(C(=O)N[C@@H](CO)[C@@H](O)[C@H](O)[C@H](O)CO)cnc1SCc1ccc(Cl)c(COC2(c3cnccc3-c3ccccc3OC3CC3)CC2)c1 [Compound I-759, 2-((4-chloro-3-((1-(4-(2-cyclopropoxyphenyl)pyridin-3-yl)cyclopropoxy)methyl)benzyl)thio)-1-methyl-N-((2S,3R,4S,5R)-1,3,4,5,6-pentahydroxyhexan-2-yl)-1H-imidazole-5-carboxamide] | 126 to 1000
12 | NC(=O)CN(CCCCCSc1ccc(Cl)c(COC2(c3cnccc3-c3ccccc3OC3CC3)CC2)c1)C(=O)[C@@H](O)[C@@H](O)[C@H](O)[C@@H](O)CO [Compound I-609, (2S,3S,4R,5S)-N-(carbamoylmethyl)-N-(5-{[4-chloro-3-({1-[4-(2-cyclopropoxyphenyl)pyridin-3-yl]cyclopropoxy}methyl)phenyl]sulfanyl}pentyl)-2,3,4,5,6-pentahydroxyhexanamide] | < 100
13 | Clc1ccc(Cl)c(CNC2(c3cnccc3-c3ccccc3OC3COC3)CC2)c1 [Compound I-19, N-[(2,5-dichlorophenyl)methyl]-1-{4-[2-(oxetan-3-yloxy)phenyl]pyridin-3-yl}cyclopropan-1-amine] | < 100
14 | O=C(O)CCC(CCC(=O)O)(CCC(=O)O)NC(=O)CCCCc1cc(Cl)c(COC2(c3cnccc3-c3ccccc3OC3CC3)CC2)cc1Cl [Compound I-102, 4-(2-carboxyethyl)-4-{5-[2,5-dichloro-4-({1-[4-(2-cyclopropoxyphenyl)pyridin-3-yl]cyclopropoxy}methyl)phenyl]pentanamido}heptanedioic acid] | 126 to 1000
15 | CN(CCCCN(CCS(C)(=O)=O)C(=O)[C@@H](O)[C@@H](O)[C@H](O)[C@@H](O)CO)S(=O)(=O)c1ccc(Cl)c(COC2(c3cnccc3-c3ccccc3OC3CC3)CC2)c1 [Compound I-459, (2S,3S,4R,5S)-2,3,4,5,6-pentahydroxy-N-(2-methanesulfonylethyl)-N-{4-[N-methyl4-chloro-3-({1-[4-(2-cyclopropoxyphenyl)pyridin-3-yl]cyclopropoxy}methyl)benzenesulfonamido]butyl}hexanamide] | < 100
16 | O=C([C@@H](O)[C@@H](O)[C@H](O)[C@@H](O)CO)N(CCCSc1ccc(Cl)c(COC2(c3cnccc3-c3ccccc3OC3CC3)CC2)c1)C1CCOCC1 [Compound I-565, (2S,3S,4R,5S)-N-(3-{[4-chloro-3-({1-[4-(2-cyclopropoxyphenyl)pyridin-3-yl]cyclopropoxy}methyl)phenyl]sulfanyl}propyl)-2,3,4,5,6-pentahydroxy-N-(oxan-4-yl)hexanamide] | 126 to 1000
17 | CC(=O)N(CCCC(C)c1ccc(Cl)c(CNC2(c3cnccc3-c3ccccc3OC3CC3)CC2)c1)C[C@H](O)[C@@H](O)[C@H](O)[C@H](O)CO (stereo partly drawn) [Compound I-377, N-(4-{4-chloro-3-[({1-[4-(2-cyclopropoxyphenyl)pyridin-3-yl]cyclopropyl}amino)methyl]phenyl}pentyl)-N-[(2S,3R,4R,5R)-2,3,4,5,6-pentahydroxyhexyl]acetamide] | < 100
18 | CC(CCCN(C(=O)[C@@H](O)[C@@H](O)[C@H](O)[C@@H](O)CO)C1CCS(=O)(=O)CC1)c1ccc(Cl)c(COC2(c3cnccc3-c3ccccc3OC3CC3)CC2)c1 (stereo partly drawn) [Compound I-311, (2S,3S,4R,5S)-N-{4-[4-chloro-3-({1-[4-(2-cyclopropoxyphenyl)pyridin-3-yl]cyclopropoxy}methyl)phenyl]pentyl}-N-(1,1-dioxo-1λ^6-thian-4-yl)-2,3,4,5,6-pentahydroxyhexanamide] | < 100
19 | CCN(CCCCc1cc(Cl)c(COC2(c3cnccc3-c3ccccc3OC3CC3)CC2)cc1C)C(=O)NC[C@H](O)[C@@H](O)[C@H](O)[C@H](O)CO [Compound I-96, 1-(4-(5-chloro-4-((1-(4-(2-cyclopropoxyphenyl)pyridin-3-yl)cyclopropoxy)methyl)-2-methylphenyl)butyl)-1-ethyl-3-((2S,3R,4R,5R)-2,3,4,5,6-pentahydroxyhexyl)urea] | < 100
